Experimental data published in patent US7456153B2, “Compounds and methods for modulating functions of classical cadherins” (Adherex Technologies Inc., priority 2002, dated 2008).

Molecular target: Fc-E-cadherin chimeric protein
Test: BIAcore binding of peptide modulating agents to captured Fc-E-cadherin
Settings: absence of calcium
Procedure: The binding of representative peptide modulating agents to Fc-E-cadherin chimeric protein in either the presence (3 mM CaCl2) or absence of calcium was assessed using a BIAcore X™ Biosensor (Pharmacia Ltd., Sweden). Protein A was immobilized on the flow cells of a CM 5 sensor chip using a standard amine coupling method. The surfaces were activated with a 7 min injection of NHS/EDC, followed by a 7 min injection of protein A in 10 mM acetate pH 5.0 at a concentration of 50 ug/mL and blocked with a 7 min injection of […] ethanolamine, pH 8.2. […] Next, Fc-E-cadherin was injected over the protein A surface to be captured on the sensor chip.
To test compound binding to these surfaces, candidate modulating agents were injected in a three-fold dilution series over the Fc-E-cadherin-coated surfaces using six concentrations and each concentration was repeated twice.

Substance	KD Fc-ECAD no Ca++
DWVAPP [H-DWVAPP-NH2]	no binding
DWVIPA [H-DWVIPA-NH2]	no binding
DWVIAP [H-DWVIAP-NH2]	no binding
AWVIPP [H-AWVIPP-NH2]	no binding
DWVIPP [H-DWVIPP-NH2]	no binding
PWVIPP [H-PWVIPP-NH2]	no binding

Tested on: SKOV3 human ovarian cancer cells
Test: Disruption of confluent SKOV3 monolayers (microscopic examination)
Type: cell-based
Settings: 1 mg/ml of culture medium, 24 hours
Procedure: We investigated the effects of the linear peptide ADH254 (H-DWVIPP-NH2; classical cadherin derived peptide) on confluent cultures of SKOV3 cells. SKOV3 human ovarian cancer cells express N-cadherin. The cells were cultured in minimum essential medium (MEM) supplemented with 10% fetal calf serum, non-essential amino acids, fungizone, penicillin-streptomycin, and gentamicin in a humidified atmosphere (5% CO2) at 37° C. All culture reagents were purchased from GIBCO (Burlington, ON). ADH254 (1 mg/ml of culture medium) was added to confluent cultures of SKOV3 cells. After 24 hours of treatment, the cells were fixed with 4% paraformaldehyde, followed by 3 washes with phosphate buffered saline, and then stained with hematoxylin. Control cultures were grown in the absence of peptide.
The peptide caused the SKOV3 cells to detach from one another and adopt an elongated, fibroblast-like morphology. These observations indicate that Trp containing peptides can disrupt cell adhesion.

Substance	disruption of confluent SKOV3 monolayers
DWVIPP [H-DWVIPP-NH2]	caused disruption of the confluent SKOV3 monolayers
